What was measured:
DU-145 = assay: Cytotoxicity testing (Example 7), MTS, DU-145; type: cell-based; conditions: Table 3; five days, 1 mM of each compound, defined media, MTS
Experimental: Cytotoxicity Studies were done in DU-145 and MCF-7 Cells. […] We set out to test the efficacy of these compounds based on known affinities for ER-α previously reported. Cells were treated for five days with 1 mM of each compound in a defined media. Cell number was estimated by the MTS method. Similar studies were carried out in the MCF-7 cell line known to express both ER-α and -β, and display proliferative properties in the presence of classic estrogens.

ER-α = molecular target: T1, ER-α (Homo sapiens, UniProt P03372); assay: Estrogen receptor relative binding affinity assay, fluorescence polarization, ER-α
T1 construct: purchased Pan Vera, Madison, Wis
T1 sequence (P03372 1-595): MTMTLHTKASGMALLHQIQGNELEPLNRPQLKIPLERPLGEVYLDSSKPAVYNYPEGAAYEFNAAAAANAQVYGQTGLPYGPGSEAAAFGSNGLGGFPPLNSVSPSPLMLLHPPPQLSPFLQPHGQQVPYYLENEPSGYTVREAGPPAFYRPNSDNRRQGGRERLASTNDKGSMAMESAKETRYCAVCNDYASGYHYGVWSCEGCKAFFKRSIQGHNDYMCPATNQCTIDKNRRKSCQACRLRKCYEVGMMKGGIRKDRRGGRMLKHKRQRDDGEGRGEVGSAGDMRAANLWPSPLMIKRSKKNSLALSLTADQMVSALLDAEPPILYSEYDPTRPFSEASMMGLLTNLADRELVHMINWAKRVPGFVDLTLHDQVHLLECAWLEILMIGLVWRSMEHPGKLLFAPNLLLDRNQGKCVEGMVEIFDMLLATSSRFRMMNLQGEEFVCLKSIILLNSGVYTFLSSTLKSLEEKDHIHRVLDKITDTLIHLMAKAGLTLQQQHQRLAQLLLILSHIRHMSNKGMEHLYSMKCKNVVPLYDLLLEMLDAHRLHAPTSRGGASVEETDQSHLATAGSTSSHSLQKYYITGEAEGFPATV
Experimental: All assays were carried out as per the manufacture's instructions with the following modifications.

PC3 = assay: MTS cell viability assay in PC3; type: cell-based
Experimental: (§1) DU145, LNCaP, PC3, and MCF-7 cells were obtained from the American Type Culture Collection (Manassas, Va.). DU145, PC3, and MCF-7 cells were maintained in Dulbecco's modified Eagle's medium/F-12 supplemented with 5% heat inactivated Fetal Calf Serum and Penicillin/Streptomycin (Invitrogen Life Technologies, Carlsbad, Calif.). LNCaP cells were maintained in RPMI 1640 medium supplemented in the same fashion. Cells were cultured in 75 cm^2 flasks (Falcon, BD Biosciences, Bedford, Mass.) at 37° C. and 5% CO2. For the MTS assay (Example 3), five thousand cells were plated in each well of a 24 well plate (Falcon), were allowed to attach for a 48-hour period in the media described, and changed to a defined medium, (DMEM/F-12 or RPMI1640) supplemented with insulin (BD Biosciences). A 1000× solution of the compound of interest solubilized in DMSO (Sigma, Saint Louis, Mo.) was diluted in the defined media just prior to starting each experiment, and media was refreshed every 48 to 72 hours throughout the experiments.
Cell viability assays were carried out with five logs of concentration between 0.1 nM and 1 μM for APVE2, including controls in three prostate cancer cell lines (DU145, LNCaP, and PC3, and in a breast cancer cell line (MCF-7). Upon completing five days of treatment, the medium in each well was exchanged for 400 μL of an MTS solution (3-(4,5-dimethylthiazol-2-yl)-5-(3-carboxymethoxyphenyl)-2-(4-sulfophenyl)-2H-tetrazolium, inner salt; O'Toole SA, 2003, Cancer Detect Prev., 2003;27(1):47-54) spiked into media as per the manufacture's instructions (Promega, Madison, Wis.) and incubated for 2 hours at 37° C. before reading the absorbance on the μQuant UV/VIS plate reader, in conjunction with KCjunior Software (Bio-Tek Instruments, Winooski, Vt.) set at 490 nm. All experiments were carried out in quadruplicate, control wells were treated with the carrier DMSO. E2, which is estradiol-17β (Steraloids®, Newport, R.I.) and resveratrol (Sigma) were used as controls. […] EC50 values were calculated with GraphPad Prism software (GraphPad Software Inc., San Diego, Calif.).

DU145 = assay: MTS cell viability assay in DU145; type: cell-based
Experimental: as §1
. Upon completing five days of treatment, the medium in each well was exchanged for 400 μL of an MTS solution (3-(4,5-dimethylthiazol-2-yl)-5-(3-carboxymethoxyphenyl)-2-(4-sulfophenyl)-2H-tetrazolium, inner salt; O'Toole SA, 2003, Cancer Detect Prev., 2003;27(1):47-54) spiked into media as per the manufacture's instructions (Promega, Madison, Wis.) and incubated for 2 hours at 37° C. before reading the absorbance on the μQuant UV/VIS plate reader, in conjunction with KCjunior Software (Bio-Tek Instruments, Winooski, Vt.) set at 490 nm. All experiments were carried out in quadruplicate, control wells were treated with the carrier DMSO. E2, which is estradiol-17β (Steraloids®, Newport, R.I.) and resveratrol (Sigma) were used as controls. […]

Compound: C[C@]12CC[C@@H]3c4ccc(O)cc4CC[C@H]3[C@@H]1CC[C@@]2(O)/C=C\c1ccc(N)cc1 [APVE2, 17α-20Z-21-[(4-amino)phenyl]-19-norpregna-1,3,5(10),20-tetraene-3,17β-diol]
- DU145 % Cell# (DU-145): 10%
- EC50 (ER-α; fluorescence polarization, 25° C., 2 hours): 365 nM
- ER-α % RBA (ER-α; ratio of EC50 values as compared to E2): 0.87%
- EC50 (PC3; Homo sapiens, PC-3, 120 h, PC3, five day treatment, read-out: EC50 (cell death, MTS)): 2.7 nM
- increase in cell proliferation over non-treated controls (PC3; PC3, 1 nM): 20%
- decrease in cell number (PC3; PC3, 5 days of treatment at 1 μM): 81±0.8%
- decrease in cell number (DU145; DU145, 5 days of treatment at 1 μM): 92±0.9%
- EC50 (DU145; Homo sapiens, DU-145, 120 h, read-out: EC50 (cell death, MTS)): 16 nM

Source: patent US20060025394A1, “Estradiol-related compounds and methods of use as anti-tumor agents” (priority 2003, published 2006)
